# Measurements taken from PubChem BioAssay AID1259334 (Broad Institute, 2017).
# The source made the active and inactive calls. No stated cut-off is given here; in the data, active means AC50 below about 11 µM. Peptide text beside a SMILES is read from it. * marks the point of attachment. Cbz = O=C(OCc1ccccc1)*
# System: B cell line, TNFa signaling counterscreen reporter
# Assay: TNFa signaling inhibitors in B cell line, dose response, counter-screen (AID 1259334);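 further: cells stimulated with TNFa after compound preincubation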
row,Structure (SMILES),AC50
1,Cc1ccccc1NC(=O)c1nc(S(C)(=O)=O)ncc1Cl,1.96 µM
2,C[C@H](CO)N1C[C@H](C)[C@@H](CN(C)Cc2cccc(C(F)(F)F)c2)OCc2ccccc2-c2c(n(C)c3ccccc23)C1=O,8.03 µM
3,O=C1C(O)CC2c3ccccc3CC3(CCCC3)N12 (configuration not stated),> 20 µM (inactive)
4,Clc1ccc(C(Cn2ccnc2)OCc2ccsc2Cl)c(Cl)c1 (configuration not stated),4.05 µM
5,C[C@H]1CN([C@@H](C)CO)C(=O)Cc2cc(NS(=O)(=O)c3cccs3)ccc2O[C@@H]1CN(C)Cc1ccc(Cl)c(Cl)c1,7.19 µM
6,O=C(Nc1ccccc1F)N1C[C@@H]2N[C@H](C1)C2c1ccc(/C=C/c2ccccc2)cc1 (some centres not stated),1.39 µM
7,[O-]C(=C(C(=S)Nc1cccc2ccccc12)[n+]1ccccc1)c1ccc2c(c1)OCCO2,> 20 µM (inactive)
8,C=C1C(=O)OC2CC1C(O)CC(C)=CCCC(C)=CC(O)CC2C (configuration not stated),2.27 µM
9,CC1CCCC=CC2CC(OC(=O)CN(C)C)CC2C(O)C=CC(=O)O1 (configuration not stated),0.0509 µM
10,NC(c1ccccc1)c1csc(NC(=O)Nc2cccc(C(F)(F)F)c2)n1 (configuration not stated),3.07 µM
11,CCCNC(=O)N1[C@H](C#N)[C@H](c2ccc(C#Cc3cccc(F)c3)cc2)[C@H]1CO,8.92 µM
12,c1ccn2cc(-c3ccc4c(c3)OCCO4)nc2c1,9.69 µM
13,O=C(/C=C/c1cccs1)c1ccc(N2CCOCC2)cc1,3.87 µM
14,O=C(Cc1ccccc1)N1CC[C@@H]2[C@H]1c1cc(C#Cc3cccc(F)c3)ccc1N[C@@H]2CO,6.03 µM
15,O=C(C1CCCC1)N1CC(=O)N2[C@@H](CO)[C@@H](c3ccc(C#CCc4ccccc4)cc3)[C@@H]2C1,1.7 µM
16,N#C[C@@H]1[C@H](c2ccc(C#Cc3ccc(F)cc3)cc2)[C@@H](CO)N1C(=O)C1CCC1,10.7 µM
17,CC(OC(=O)c1cc(Br)ccc1O)C(=O)Nc1ccc(S(=O)(=O)N2CCCC2)cc1 (configuration not stated),7.82 µM
18,CC(C)C[C@@H](C=O)NC(=O)[C@H](CC(C)C)NC(=O)[C@H](CC(C)C)NC(=O)OCc1ccccc1 (Cbz-Leu-Leu-Leu-aldehyde),3.82 µM
19,Clc1ccc(COC(Cn2ccnc2)c2ccc(Cl)cc2Cl)c(Cl)c1 (configuration not stated),8.2 µM

row,Structure (SMILES),AC50
1,O=C1CCCCC1Sc1nnc(-c2ccc3c(c2)OCO3)o1 (configuration not stated),0.871 µM
2,CS(=O)(=O)c1ccc(C(=O)OCC(=O)NC(=O)C2CCCCC2)cc1[N+](=O)[O-],2.79 µM
3,COc1ccc(CC2C(=O)NC(C)C(=O)N(C)C3Cc4ccc(cc4)Oc4cc(ccc4O)CC(C(=O)NC(C)C(=O)NC(C)C(=O)N2C)N(C)C3=O)cc1 (configuration not stated),0.00464 µM
4,O=C1NC2c3c(Cl)sc(Cl)c3C(=O)C2O1 (configuration not stated),4.18 µM
5,Cc1ccc2nc(C(F)(F)F)c(C#N)c(N)c2c1,7.61 µM
6,COc1ccc(/C=C2/CCC(CN3CCOCC3)C2=O)cc1 (configuration not stated),2.69 µM
7,O=S(=O)(CCSc1ccccn1)c1nc2ccccc2s1,5.13 µM
8,C[C@H](CO)N1C[C@H](C)[C@@H](CN(C)Cc2ccc(Oc3ccccc3)cc2)OCc2ccccc2-c2ccccc2C1=O,7.02 µM
9,COc1ccc(S(=O)(=O)Nc2ccc3c(c2)C(=O)N([C@@H](C)CO)C[C@H](C)[C@@H](CN(C)Cc2ccc(C(F)(F)F)cc2)OCCCC[C@@H](C)O3)cc1,7.51 µM
10,CC[N+]1(C)CCC(O)(c2ccc(OC)cc2)C(C(=O)c2ccc(OC)cc2)C1 (configuration not stated),3.52 µM
11,C[C@H]1CN([C@@H](C)CO)C(=O)Cc2cc(NC(=O)Cc3cn(C)c4ccccc34)ccc2O[C@H]1CN(C)Cc1ccc(C(F)(F)F)cc1,> 20 µM (inactive)
12,Cc1c(CCOC(=O)CC23CC4CC(CC(C)(C4)C2)C3)sc[n+]1CC(=O)c1ccccc1,1.81 µM
13,COc1ccc(/C=C\c2nc(=O)c3ccccc3o2)cc1,9.73 µM
14,N#C[C@@H]1[C@H](c2ccc(C#CC3CCCCC3)cc2)[C@@H](CO)N1C(=O)Nc1ccc(F)cc1,> 20 µM (inactive)
15,O=[N+]([O-])c1ccc(N2CCOCC2)c2c1no[n+]2[O-],6.5 µM
16,CCCNC(=O)N1[C@@H](C#N)[C@H](c2ccc(-c3cccc(OC)c3)cc2)[C@@H]1CO,> 20 µM (inactive)
17,Oc1c(Cl)cc(Cl)cc1Sc1cc(Cl)cc(Cl)c1O,3.41 µM
18,O=C1C=CC2C3C(=O)N(c4ccccc4)C(=O)C3C1N2Cc1ccccc1 (configuration not stated),1.52 µM
